From a melting point compilation (Tetko et al.; mined from patent text by program, amines drawn as free bases though some values may be those of a salt)

Structure (SMILES)	melting point [°C]
CSc1sc(C(N)=O)c2c1-c1sc(C(N)=O)cc1CC2	> 300
O=C(O)CNC(=O)c1ccc([N+](=O)[O-])c(F)c1	136 to 138
O=S(=O)(Nc1onc2c1CCCC2)c1ccccc1	155 to 157
CCOc1nc(C(=O)O)ccc1C#N	185 to 190
CSc1c2c3c(cccc3n1C)C1C=C(C)CN(C)C1C2 (centres undefined)	115 to 116
COc1ccc(OC2SCC(O)C(O)C2O)cn1 (centres undefined)	159 to 161
COC(=O)CC(C)C1CCC2C3CC=C4CC(O)CC(O)C4(C)C3CCC12C (centres undefined)	144 to 146
COC(=O)c1cc(OCC=C(Cl)Cl)cc(Cl)c1OCC=C(Cl)Cl	63
CCOC(=O)N=P(c1ccccc1)(c1ccccc1)c1ccccc1CN1CCCCC1	121 to 123
CC=C1CCC2C3CCC4CC(O)C(OCC)CC4(C)C3C(N)CC12C (centres undefined)	65 to 70
CS(=O)(=O)N[C@H]1CC[C@H](CCN2CCC(c3cccc4c3CCO4)CC2)CC1	152
O=C(Cc1ccncc1)NC1CCCCC1	147 to 148
CC(=O)C1(CCC(=O)OC(C)(C)C)CCCCC1=O (centres undefined)	47 to 53
Clc1cccc2c1Oc1ccccc1NC2	71 to 73
CCOCC1COc2cc3c(Cl)c(C(=O)OCC)cnc3cc2O1 (centres undefined)	106 to 108
O=C(CCl)c1cccn1C(c1ccccc1)c1ccccc1F (centres undefined)	86 to 91
CC(C)(N)CSCCO	49 to 51
CC(C)(C)NC(=O)[C@@H]1C[C@H](Cl)CN1C(=O)[C@@H](O)[C@H](Cc1ccccc1)NC(=O)[C@H](CC(N)=O)NC(=O)OCc1ccccc1	103 to 107
O=C(Nc1ccc([N+](=O)[O-])cc1)C(=O)N1CCC(Cc2ccccc2)CC1	162 to 165
CCC1=CC(Cl)(NC2CCC(C(C(=O)OC)C(=O)OC)CC2)NC=N1 (centres undefined)	82 to 83
CCCCN(CCCC)Cc1nnc(-c2ncn3c2CN(C)C(=O)c2ccccc2-3)o1	211 to 213

Structure (SMILES)	melting point [°C]
CCc1cc(NC(=O)c2nnn(Cc3ccc(OC)cc3)n2)c(O)c(C(C)=O)c1	159 to 160
CCOC(=O)Oc1cc2occ(C=O)c(=O)c2cc1OC(=O)OCC	101 to 102
C#CCCCOc1c(C)cc(C(=O)O)cc1C	129 to 130
CC(C)(C)OC(=O)NC(C(=O)O)C1(O)CCOCC1 (centres undefined)	140 to 141
CC(=O)Nc1cc(F)ccc1C(=O)NCCN1CCC2(CC1)C(=O)NCN2c1ccc(F)cc1	195
CC(=O)OCC(=O)C1C(C)CC2C3CC(Cl)C4=CC(=O)C=CC4(C)C34OC4CC21C (centres undefined)	189
N=C1NCCN1Cc1ccccc1	165 to 167
CCC(Oc1ccccc1)C(=O)NCCO[N+](=O)[O-] (centres undefined)	59 to 61
CC(/C=C/C(=O)N1CCCc2cc3c(cc21)C(C)(C)CCC3(C)C)=C\C(=O)O	225 to 227
CS(=O)(=O)OCCCCCCc1ccc(OCc2coc(/C=C/c3ccccc3)n2)cc1	88 to 89
Cc1c(N2C(=O)C[C@H](O)[C@@H]2C)ccc(C#N)c1Cl	172 to 173
O=C(O)CCCCCOc1ccc(OCc2ccccc2)cc1	100 to 101
NC(=O)CCCCCNC(N)=O	208
O=C(NCCc1ccccc1)c1ccc(S(=O)(=O)NC(=O)c2ccc(C(=O)NCCO)nc2)cc1	228 to 230
CC(C)(C)c1ccc(C2(C(N)=O)CC2)cc1	178 to 180
C=CCC(C)(C)C(=O)NC1CCCNC(=O)C1 (centres undefined)	71 to 72
O=[N+]([O-])c1cccc(/C=C/c2nc(C3CCCC3)cs2)c1	65 to 70
CC(C)[C@@H](NCC1(O)OC[C@@H](O)[C@@H](O)[C@@H]1O)C(=O)O (some centres undefined)	125 to 126
CN(C)C(=O)Nc1scc(C(C)(C)C)c1C#N	140
O=C(Nc1ccc(N2CCCCC2)cc1)N(C[C@H]1CC[C@H](CN(C(=O)Nc2ccc(N3CCCCC3)cc2)C2CCCCC2)CC1)C1CCCCC1	174 to 178

Second part, the molecule after the results:

melting point [°C]	Structure (SMILES)
148 to 152	CCOc1ccc(-c2[nH]c(-c3ccc([N+](=O)[O-])cc3)nc2C(=O)O)cc1
190 to 194	COC(=O)CCc1ccc(-n2c(-c3ccccc3)nn(-c3ccc(C#N)cc3)c2=O)cc1
131 to 133	CCc1noc(-c2cn(-c3cccc(Oc4ccc(N)cc4)c3)cn2)n1
216	CC1CC(=O)NN=C1c1ccc2nc(C3CC3)n(Cc3ccc(-c4ccccc4-c4nnn[nH]4)cc3)c2c1 (centres undefined)
166	O=C(NC(CO)CO)c1cccc(-c2ccc3c(c2)C(c2cc(Cl)ccc2Cl)CC3)c1 (centres undefined)
73 to 77	O=C1c2cc(O)ccc2SCC1Cc1ccccc1 (centres undefined)
177	Cc1nc(-c2ccc(C(F)(F)F)cc2)sc1Sc1ccc(Cc2nn[nH]n2)cc1
165 to 173	CCOP(=O)(O)Cc1ccc(NC(=O)N2CCN(c3ccc(NC(=O)Nc4cc(C)ccc4OC)cc3)CC2)c(C)c1
168 to 169	CN(Cc1ccccc1Sc1nc2ccccc2[nH]1)c1ccccc1
193 to 195	c1ccc(CNc2nc(-n3cncn3)nc3ccccc23)cc1
> 250	COc1ccc(NC(=O)c2c(Cl)cccc2Cl)c2nccc(NN)c12
177 to 180	CCCc1c(OC(C(=O)O)c2ccc(Cl)c(Cl)c2)ccc(C(C)=O)c1O (centres undefined)
123 to 125	CN(C=O)C1CCC(O)(c2ccc(Cl)c(Cl)c2)c2ccccc21 (centres undefined)
294 to 297	CC(C)NC1=NS(=O)(=O)c2ccc(C(F)(F)F)cc2N1
149 to 151	Clc1cc(C#Cc2nccs2)c2oc(Cc3ccccc3Cl)nc2c1
190	O=C(Nc1ccc2ccc(Oc3ccccc3)nc2n1)C1CC1
169 to 170	COc1cc2ccnc(C(S)(C#N)CCC(=O)O)c2cc1OC (centres undefined)
152 to 153	O=C(Nc1cccc(CN2CCCCC2)c1)C1=Cc2cc(-c3ccccc3)ccc2CC1
167 to 168	CC1(C)CCC(C)(C)c2cc(CC#Cc3ccc(C(=O)O)cc3)ccc21
98	Cc1cc(-n2ccnc2)c2cccc(OCc3c(Cl)ccc(S(=O)(=O)N4CCC[C@H]4C(=O)N4CCN(C(=O)OC(C)(C)C)CC4)c3Cl)c2n1

melting point [°C]	Structure (SMILES)
104 to 106	CC1(CCl)CN(C2CCN(c3cccc(OC(F)(F)F)c3)C2=O)C1=O (centres undefined)
126 to 128	CCCNC(=O)c1cnc2ccc(C)cn2c1=O
240 to 242	NS(=O)(=O)c1cc2c(cc1Cl)C(=O)N(Cc1ccccn1)C2=O
198 to 200	CCCOc1ccc(S(=O)(=O)N2CCN(C)CC2)cc1-c1nc2cc3ncn(Cc4cccc(Cl)c4)c3cc2c(=O)[nH]1
225 to 226	COc1ccc2c(c1)sc1nc(Nc3ccccc3)nc(=N)n12
142 to 152	Cc1cc(-c2cccc(NC(=O)N[C@@H]3c4cc(C#N)ccc4OC(C)(C)[C@H]3O)c2)n(C)n1
102 to 104	Clc1ccc(Cn2ccc3cc(OCc4ccc5ccccc5n4)ccc32)cc1
135 to 137	COc1cc(C=C(C(=O)O)c2ccc(O)cc2)cc(OC)c1
118 to 120	COc1cc(OC)nc(Sc2sccc2NS(=O)(=O)CC#N)c1
173 to 175	COc1ccc(CNc2nn(CC(=O)O)c(=O)c3ccc(C#N)cc23)cc1Cl
157	CCOC(=O)N1CCCC(Nc2nc3cncnc3n2Cc2ccc(F)cc2)CC1 (centres undefined)
40.5 to 43.5	OCCOc1cccc(OCc2ccccc2)c1
172	COC(=O)N1CCC(Nc2nc3ccccc3n2Cc2ccc(F)cc2)C(C)C1 (centres undefined)
246 to 248	Cc1cc(-c2c(F)cc3c(=O)c(C(=O)O)cn(C4CC4)c3c2F)cc(C)n1
117 to 119	O=C(O)c1cc(Cl)ccc1C(O)=NCc1ccccc1
176 to 177	CN(C)C(=O)C1CCc2c([nH]c3ccc(Cl)cc23)C1 (centres undefined)
171 to 172	Cc1nc2c3c(c(C(=O)N4CC(O)C4)cc2n1C)CCC1(Cc2ccccc2C1)N3
148 to 155	Cc1ccc(C(=O)NC(CF)NC(=S)Nc2cccc([N+](=O)[O-])c2)cc1 (centres undefined)
177 to 179	CN1CCC(Oc2cccc(C(=O)Nc3cc(NC(=O)c4ccc(C#N)cc4)ccc3Cl)c2)CC1
200 to 203	COc1ccc(-c2csc(Nc3cc4ccccc4cn3)n2)cc1OC

melting point [°C]	Structure (SMILES)
155 to 156	COC(=S)c1ccc(-c2ccccc2)c(S(C)(=O)=O)c1
142 to 144	O=C(O)c1sc(C(F)(F)F)cc1OCc1ccccc1
116 to 117	Cc1ccc(S(=O)(=O)NCc2ccc(C(=O)CBr)cc2)cc1
231 to 234	CC1(C)CC(=O)c2c(Sc3ccccc3)sc(-c3cc[nH]n3)c2C1
133 to 135	CC(C)(C(=O)O)c1nc2ccc(NCCCN3CCC(OC(c4ccccc4)c4ccccc4)CC3)nn2c1Cl
106 to 107	COc1c(OC)c(OC(C)=O)c2cc(Cl)ccc2c1O
158 to 159	CCOC(=O)/C=C/c1c(-c2ccccc2)c2c3ccccc3cnn2c1C(C)C
117 to 119	[N-]=[N+]=Nc1cc(Cl)nc(-c2ccco2)n1
> 324	COc1cc2cc3c4c(cccc4c2cc1OC)C(=O)OC3=O
160 to 163	N#CC(C(=O)C(F)(F)F)c1cc(Cl)cc(Cl)c1Cl (centres undefined)
160	CCOc1cccc(C)c1S(=O)(=O)NC(=O)n1nc(OCC)n(C)c1=O
151 to 154	CNN1CSC(=Cc2cc(C(C)(C)C)c(O)c(C(C)(C)C)c2)C1=O
125 to 130	Cn1cccc1-c1nsc2ccc(-n3c(=O)cc(C(F)(F)F)[nH]c3=O)cc12
184	N#Cc1cccc(C2=Nc3ccc(C#CC4=CCNCC4)cc3NC(=O)C2)c1
221	CN(CCO)S(=O)(=O)c1cc(NC(=O)c2cnn3c(C(F)(F)F)cc(-c4ccc(C(F)(F)F)cc4)nc23)c(Cl)s1
88 to 100	CCN(CC)CCCNc1ncc2cc(-c3c(Cl)cccc3Cl)c(NC(=O)NC(C)C)nc2n1
110 to 111	CCCCCCCCc1nc2c(N)nc3ccccc3c2n1CCOCc1ccccc1
89 to 94	CC(=O)c1ccc2c(c1)C(Cc1ccccc1)=CC(=CCl)CO2
